Experimental data taken from US9018173B2, “Materials and methods for suppressing inflammatory and neuropathic pain” (Indiana University Research and Technology Corp., priority 2010, dated 2015).
Residues, ends and D or L forms follow the SMILES beside them. No end group written: not given here.

What was measured:
[1] = tested on: capsaicin-induced meningeal blood flow changes
[2] = tested on: anxiety-associated behavior; experiment: Light-Dark Box test (LDBT); type: in vivo, C57BL6 mice
Description: The light-dark box test and the elevated plus maze were used as measures of anxiety-associated behaviors. The tail suspension test was performed to evaluate despair- and depression-associated behavior. Anxiety-behavior testing Anxiety occurs when there is conflict between risk and reward. The Light-Dark Box test (LDBT) and the elevated plus maze (EPM) are accepted tests of anxiety-associated behavior that assess the conflict mice have against hiding in enclosed dark areas (i.e., dark box or closed arm) and their tendency to explore novel environments (i.e., white box or open arm). Lalonde, R. & Strazielle, C. […] J. Neurosci. Methods. 171, 48-52 (2008). These tests are also sensitive to anxiolytic drug treatments. Light-Dark Box test as a measure of anxiety-associated behavior. For the light-dark box test (LDBT), there were two adjoined light and dark compartments boxes with a 7 cm square opening to allow mice to move between them. The black box was covered (20 cm×40 cm×30 cm height) and the white box (20 cm×40 cm×30 cm height) was open and illuminated (40 W). Each mouse was placed into the white compartment and the white compartment was video recorded for later analyses using ANY-maze software (version 4.75, Stoelting, Wood Dale, Ill.) which is a video tracking system designed to automate testing in behavioral experiments. The main parameters were duration of time spent in the light box; the latency to enter the dark box; and the number of transitions between the light and dark box.

[3] = Biodistribution after i.p. injection (dot blot, FITC fluorescence); conditions: 25 mg/kg i.p.
[4] = tested on: anxiety-associated behavior; experiment: Elevated plus maze (EPM); type: in vivo, C57BL6 mice
[5] = tested on: depression/despair-associated behavior; experiment: Tail suspension test (TST); type: in vivo, C57BL6 mice
Description: The light-dark box test and the elevated plus maze were used as measures of anxiety-associated behaviors. The tail suspension test was performed to evaluate despair- and depression-associated behavior.
Depression/Despair-behavior testing. Since rodents such as mice and rats display immobile postures when placed in inescapable stressful situations, immobility behavior in the tail suspension test (TST) or forced swim test (FST) is used as a measure of “depression” or “despair”-associated behavior. Furthermore, administering antidepressant treatments prior to testing reduces immobility behavior. Therefore TST and FST are often used to screen novel drugs for depressant or anti-depressant properties.
Tail suspension test as a measure of depression-associated behavior. Immediately following the EPM test, the TST was conducted according to standard procedure between 8:00 AM and 2:00 PM. Cryan, J. F., Mombereau, C., & Vassout, A. The tail suspension test as a model for assessing antidepressant activity: review of pharmacological and genetic studies in mice. Neurosci. Biobehay. Rev. 29, 571-625 (2005). Briefly, each mouse was suspended by the tail at a height of 40 cm by taping the rail to a horizontal bar so that the tail is vertical to the bar. Behavior was video recorded for 5 min and later analyzed by an experimenter, whom was blind to the treatments. […] If a mouse climbed its tail the mouse was gently pulled back down and the trial continued. Mice that climbed their tails for more than 20% of the trial (i.e. >60 seconds) were eliminated from the final analysis. Duration and frequency of immobility was the main parameters measured. Mice injected with the scrambled control peptide were immobile approximately 26% of the TST duration which is equivalent to baseline immobility durations (approximately 27%) observed in C57B16 mice in another recent study.

[6] = C57BL6 mice, 10 mg/kg i.p., 1 h after injection, 5 min test

CGRP8-37: CGRP antagonist (VTHRLAGLLSRSGGVVKNNFVPTNVGSKAF; ends and bridges not checked; UniProt P06881 90-119, looked up, fragment)
capsaicin-induced blood flow changes (effect in words) ([1]; dural application prior to nasal capsaicin 100 nM): blocked
capsaicin-induced blood flow change after CGRP antagonist ([1]; prior topical administration, n=3): 5±4%

CC[C@H](C)[C@H](NC(=O)[C@@H](NC(=O)[C@H](CC(C)C)NC(=O)[C@H](C)NC(=O)[C@H](CCC(=O)O)NC(=O)[C@H](Cc1ccccc1)NC(=O)[C@H](Cc1ccc(O)cc1)NC(=O)[C@H](CC(C)C)NC(=O)[C@H](CCSC)NC(=O)[C@H](CCC(=O)O)NC(=O)[C@H](CCCCN)NC(=O)[C@H](C)NC(=O)[C@H](CCC(=O)O)NC(=O)[C@H](Cc1c[nH]c2ccccc12)NC(=O)[C@H](CCCNC(=N)N)NC(=O)[C@H](CCCNC(=N)N)NC(=O)[C@H](CCCNC(=N)N)NC(=O)[C@H](CCC(N)=O)NC(=O)[C@H](CCCNC(=N)N)NC(=O)[C@H](CCCNC(=N)N)NC(=O)[C@H](CCCCN)NC(=O)[C@H](CCCCN)NC(=O)[C@H](CCCNC(=N)N)NC(=O)CNC(=O)[C@@H](N)Cc1ccc(O)cc1)C(C)C)C(=O)N[C@@H](CCC(=O)O)C(=O)O [TAT-Scramble, reference compound] (H-YGRKKRRQRRRWEAKEMLYFEALVIE-OH; N-terminus and C-terminus assumed)
Light-Dark Box: Dark box latency to exit [2, 6]: 53.0 ± 11.5 s
Light-Dark Box: Light box entries [2, 6]: 8.2 ± 0.8
LDBT time in the light box ([2]; mouse, in vivo): approximately 25%
tissue distribution (dot blot, anti-TAT antibody) ([3]; 15 min post-injection): detected in spleen and largely concentrated in lumbar dorsal root ganglion (DRG) and lumbar section of the spinal cord
tissue distribution (dot blot, anti-TAT antibody) ([3]; 1 h post-injection): also detected in kidney, brain, spinal cord and was abundant in the DRG
EPM time in the open arm compared to the closed arm ([4]; 10 mg/kg): approximately 30%
Elevated Plus Maze: Closed arm entries [4, 6]: 16.3 ± 2.0
Elevated Plus Maze: Closed arm latency to enter [4, 6]: 6.3 ± 2.5 s
Elevated Plus Maze: Closed arm latency to exit [4, 6]: 14.7 ± 3.0 s
Elevated Plus Maze: Open arm entries [4, 6]: 11.5 ± 1.6
Elevated Plus Maze: Open arm latency to enter [4, 6]: 5.9 ± 2.3 s
Elevated Plus Maze: Open arm latency to exit [4, 6]: 14.5 ± 3.1 s
Tail Suspension Test: Active [5, 6]: 221.0 ± 11.3 s
TST immobility as share of test duration ([5]; mouse, in vivo): approximately 26%
